Source: patent US20100111874A1, “METHOD OF CANCER DETECTION AND TREATMENT” (University of Medicine and Dentistry of New Jresey, priority 2007, published 2010)

Biological target: T1, TOP1 (Homo sapiens, UniProt P11387)
T1 construct: endogenous in cells; host or cells: ZR-75-1 and its shRNA clones
T1 sequence (P11387 1-765): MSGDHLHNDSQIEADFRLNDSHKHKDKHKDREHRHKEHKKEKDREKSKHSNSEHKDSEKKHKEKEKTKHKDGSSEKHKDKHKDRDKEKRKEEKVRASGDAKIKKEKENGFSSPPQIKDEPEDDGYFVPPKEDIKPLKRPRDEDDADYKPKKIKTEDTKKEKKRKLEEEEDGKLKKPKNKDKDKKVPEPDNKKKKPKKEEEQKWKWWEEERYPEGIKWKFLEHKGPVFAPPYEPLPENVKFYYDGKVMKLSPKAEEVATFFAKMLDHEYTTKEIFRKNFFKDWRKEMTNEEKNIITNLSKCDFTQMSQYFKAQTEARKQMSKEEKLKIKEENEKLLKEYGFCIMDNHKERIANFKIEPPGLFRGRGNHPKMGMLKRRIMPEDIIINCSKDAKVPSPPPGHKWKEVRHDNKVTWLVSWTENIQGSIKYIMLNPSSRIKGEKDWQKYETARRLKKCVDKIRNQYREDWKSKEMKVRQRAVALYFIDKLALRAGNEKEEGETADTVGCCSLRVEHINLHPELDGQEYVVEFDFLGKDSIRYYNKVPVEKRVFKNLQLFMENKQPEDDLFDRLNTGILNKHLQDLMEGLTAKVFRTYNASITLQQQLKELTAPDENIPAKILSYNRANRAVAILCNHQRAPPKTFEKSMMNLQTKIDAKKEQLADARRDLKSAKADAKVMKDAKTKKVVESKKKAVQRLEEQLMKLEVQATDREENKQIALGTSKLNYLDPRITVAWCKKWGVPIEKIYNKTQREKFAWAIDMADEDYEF
Experiment: Immunoblotting assay for CPT-induced TOP1 degradation
Format: cell-based
Conditions: CPT 25 μM
Description: Band depletion assay for TOP1 cleavage complexes. Cells (106/sample) are treated with CPT (25 μM in 1% DMSO) for various times at 37° C. Cells are then lysed with 0.2 N NaOH containing 2 mM EDTA as described previously (14). Cell lysates are then neutralized with 1/10 volume of a solution containing 10% NP-40, 1 M Tris (pH 7.4), 0.1 M MgCl2, 0.1 M CaCl2, 10 mM dithiothreitol, 1 mM EGTA, and a mixture of peptide protease inhibitors (100 μg/ml each of leupeptin, pepstatin, and aprotinin), followed by the addition of another 1/10 volume of 2 N HCl. Reactions are terminated by the addition of SDS-PAGE sample buffer. Immunoblotting analysis of cell lysates is carried out using anti-Scl-70 antibody from scleroderma patients as described above.
Immunoblotting assay for CPT-induced TOP1 degradation. Cells are prepared for immunoblotting as described above with two modifications. First, cells are incubated in CPT-free medium for 30 min prior to lysis (to reverse TOP1 cleavage complexes and to de-conjugate TOP1-ubiquitin and TOP1-UBL conjugates). Second, neutralized cell lysates are incubated with Staphylococcus aureus nuclease S7 (60 U/reaction) for 20 min on ice (to release TOP1 from residual TOP1-DNA covalent complexes) prior to termination with SDS-PAGE sample buffer.
Example No. 3. […] Panel A, Reduced ISG15 expression in ZR-75-1 cells expressing ISG15 shRNA. Cell lysates of ZR-75-1 clones expressing either control shRNA (lane #1) or ISG15 shRNA (lanes #2) are analyzed by 15% SDS-PAGE. Western blotting analysis is performed using anti-ISG15 antisera (upper panel). […] Panel B, CPT sensitivity. Clonogenic survival assay is carried out as described in Materials and Methods. Colonogenic survival curves of a ZR-75-1 clone expressing control shRNA and ISG15 shRNA after CPT treatment is shown. Mean±SD values from at least two experiments are presented. Panel C, CPT-induced TOP1 down-regulation. ZR-75-1 cells stably transfected with control shRNA (lanes 1-4) or ISG15 shRNA (lanes #5-8) (10^6 cells/sample) are treated with either DMSO (lanes #1 and 5) or CPT (25 μM in 1% DMSO) (lanes #2-4 and 6-8) for various times at 37° C. Subsequently, cells are placed in fresh CPT-free media for 30 min to reverse cleavable complexes. Cell lysis and immunoblotting using anti-hTOP1 antisera are carried out as described in FIG. 1 (upper panels).
Example No. 4. […] Panel A, the reduced UbcH8 protein level in ZR-75-1 cells expressing UbcH8 shRNA. Cell lysates prepared from ZR-75-1 clones expressing either control shRNA (lane #1) or UbcH8 shRNA (lanes #2 and 3, from two independent clones), and the purified UbcH8 protein (lane #4) are analyzed by 15% SDS-PAGE. Western blotting analysis is performed using anti-UbcH8 antibody (Abeam). […] Panel B, UbcH8 shRNA decreases ISG15 conjugation in ZR-75-1 cells. Cell lysates prepared from ZR-75-1 clones expressing either control shRNA (lane #1) or UbcH8 shRNA (lanes #2 and 3, two independent clones), and the purified UbcH8 protein (lane #4) are analyzed by 15% SDS-PAGE. Western blotting analysis is performed using anti-ISG15 antibody. The non-specific bands are due to the crossreactivity of the ISG15 antibody to bovine serum albumin. Panel C, knocking down UbcH8 confers CPT resistance. ZR-75-1 clones expressing control shRNA and UbcH8 shRNA (two independent clones) are treated with CPT and cell survival is measured as described in Example 3. Panels D-F, CPT-induced TOP1 down-regulation is […] in ZR-75-1 cells expressing UbcH8 shRNA. Clonal cells of ZR-75-1 expressing control (panel D) or UbcH8 shRNA (panels E and F, representing two independent clones) (10^6/sample) are treated with either DMSO (lanes #1, 5, and 9) or CPT (25 μM in 1% DMSO) (lanes #2-4, 6-8, and 10-12) for various times at 37° C. Cells are then placed in fresh CPT-free media for 30 min to reverse cleavage complexes. Cell lysis and immunoblotting using anti-hTOP1 antibody are carried out as described in Example 1.

CC[C@@]1(O)C(=O)OCc2c1cc1n(c2=O)Cc2cc3ccccc3nc2-1 [CPT, camptothecin] was tested, and the TOP1 down-regulation (MCF7/RC cells) was “increased”, the TOP1 down-regulation (ZR/ISG15-shRNA1 cells, 2 hrs) was “about 50%” and the “degradation of TOP1” value (ZR/UbcH8-shRNA1 cells, 2 hrs) was “about 50%”. The “degradation of TOP1” value (ZR/UbcH8-shRNA2 cells, 2 hrs) was “about 50%”, the TOP1 down-regulation (ZR/control-shRNA1 cells) was “minimal” and the TOP1 down-regulation (ZR/control-shRNA2 cells) was “minimal”. The TOP1 down-regulation (parental MCF7 cells) was “minimal”.
